# US20170355705A1 (GlaxoSmithKline Intellectual Property (No.2) Limited, priority 2014, published 2017)
# Biological target: T1, SIRT1 (Homo sapiens, UniProt Q96EB6)
# T1 sequence (Q96EB6 1-747): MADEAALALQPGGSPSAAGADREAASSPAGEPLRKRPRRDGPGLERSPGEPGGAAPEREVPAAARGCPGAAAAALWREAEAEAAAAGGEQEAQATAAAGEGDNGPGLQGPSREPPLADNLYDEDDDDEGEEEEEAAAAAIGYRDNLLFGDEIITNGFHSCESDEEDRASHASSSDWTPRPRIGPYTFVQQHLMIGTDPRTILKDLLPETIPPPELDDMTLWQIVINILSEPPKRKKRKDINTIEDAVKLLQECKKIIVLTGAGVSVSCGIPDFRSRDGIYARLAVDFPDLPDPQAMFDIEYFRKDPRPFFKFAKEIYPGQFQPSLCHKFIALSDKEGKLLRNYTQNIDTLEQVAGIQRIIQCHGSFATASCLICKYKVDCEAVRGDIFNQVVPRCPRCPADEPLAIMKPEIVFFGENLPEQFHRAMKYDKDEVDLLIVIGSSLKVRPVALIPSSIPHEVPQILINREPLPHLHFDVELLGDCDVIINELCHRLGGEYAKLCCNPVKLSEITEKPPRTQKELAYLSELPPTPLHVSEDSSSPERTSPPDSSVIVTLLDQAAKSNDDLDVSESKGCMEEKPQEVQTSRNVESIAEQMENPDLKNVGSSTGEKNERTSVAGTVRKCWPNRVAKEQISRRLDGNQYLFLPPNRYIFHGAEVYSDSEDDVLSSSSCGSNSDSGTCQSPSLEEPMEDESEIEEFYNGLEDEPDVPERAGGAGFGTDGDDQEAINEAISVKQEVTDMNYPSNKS
# Assay: Trp mass spectrometry assay of SIRT1 activity (EC1.5, percent maximum activation)
# Type: biochemical
# Conditions: Trp mass spectrometry assay; for TRP Activity (EC1.5): EC1.5 = concentration giving 150% activation of SIRT1
# From the text: Mass spectrometry based assays were used to identify modulators of SIRT1 activity. […] The peptide was labeled with the fluorophore 5TMR (excitation 540 nm/emission 580 nm) at the C-terminus. The sequence of the peptide substrate was based on p53 with several modifications. In addition, the methionine residue naturally present in the sequence was replaced with the norleucine because the methionine may be susceptible to oxidation during synthesis and purification.
# The Trp mass spectrometry assay was conducted as follows. […] The SIRT1 protein was obtained by cloning the SirT1 gene into a T7-promoter containing vector, which was then expressed in BL21(DE3) bacterial cells and purified as described in further detail below. Test compound was added at varying concentrations to this reaction mixture and the resulting reactions were monitored. After the 25 minute incubation with SIRT1, 10 μL of 10% formic acid was added to stop the reaction. The resulting reactions were sealed and frozen for later mass spec analysis. The relative SIRT1 activity was then determined by measuring the amount of O-acetyl-ADP-ribose (OAADPR) formed (or, alternatively, the amount of deacetylated Trp peptide generated) by the NAD-dependent sirtuin deacetylation reaction in the presence of varying concentrations of the test compound versus control reactions lacking the test compound. The degree to which the test agent activated deacetylation by SIRT1 was expressed as EC1.5 (i.e., the concentration of compound required to increase SIRT1 activity by 50% over the control lacking test compound), and Percent Maximum Activation (i.e., the maximum activity relative to control (100%) obtained for the test compound).
# This time point was the same as that used for test compounds and, within the linear range, the endpoint represents a change in velocity.
# For the above assay, SIRT1 protein was expressed and purified as follows. The SirT1 gene was cloned into a T7-promoter containing vector and transformed into BL21(DE3). The protein was expressed by induction with 1 mM IPTG as an N-terminal His-tag fusion protein at 18° C. overnight and harvested at 30,000×g. Cells were lysed with lysozyme in lysis buffer (50 mM Tris-HCl, 2 mM Tris[2-carboxyethyl]phosphine (TCEP), 10 μM ZnCl2, 200 mM NaCl) and further treated with sonication for 10 min for complete lysis. The protein was purified over a Ni-NTA column (Amersham) and fractions containing pure protein were pooled, concentrated and run over a sizing column (Sephadex S200 26/60 global). The peak containing soluble protein was collected and run on an Ion-exchange column (MonoQ). Gradient elution (200 mM-500 mM NaCl) yielded pure protein. This protein was concentrated and dialyzed against dialysis buffer (20 mM Tris-HCl, 2 mM TCEP) overnight. The protein was aliquoted and frozen at −80° C. until further use.
# “NT” means not tested; “ND” means not determinable.
# [1] = percent maximum activation of SIRT1
# [2] = 0.5 μM peptide substrate, 120 μM βNAD+, 10 nM SIRT1, 25 minutes at 25° C.
TRP Activity (EC1.5),TRP MAX RESP (percent maximum fold activation) [1],"TRP Activity (EC1.5, concentration of test compound that results in 150% activation of SIRT1) [2]",TRP MAX RESP (percent maximum fold activation) [2],Structure (SMILES)
A (EC1.5<1 μM),A (Fold activation ≧150%),,,"O=C(Nc1ccnc(OC[C@@H](O)CO)n1)N1c2nc(-c3cccc(C(F)(F)F)c3)ccc2N2CC[C@H]1C2 [Example 134, (4S)-N-(2-((S)-2,3-dihydroxypropoxy)pyrimidin-4-yl)-7-(3-(trifluoromethyl)phenyl)-3,4-dihydro-1,4-methanopyrido[2,3-b][1,4]diazepine-5(2H)-carboxamide]"
A (EC1.5<1 μM),A (Fold activation ≧150%),,,"O=C(Nc1cccc(OC[C@H](O)CO)n1)N1c2nc(-c3cccc(C(F)(F)F)c3)c(Cl)cc2N2CC[C@H]1C2 [Example 56, (4S)-8-chloro-N-(6-((R)-2,3-dihydroxypropoxy)pyridin-2-yl)-7-(3-(trifluoromethyl)phenyl)-3,4-dihydro-1,4-methanopyrido[2,3-b][1,4]diazepine-5(2H)-carboxamide]"
C (EC1.5>25 μM),B (Fold Activation <150%),,,"Cc1cc(-c2nc3c(cc2Cl)N2CC[C@@H](C2)N3C(=O)Nc2cncc(OC[C@H](O)CO)n2)ccn1 [Example 97, (4S)-8-chloro-N-(6-((R)-2,3-dihydroxypropoxy)pyrazin-2-yl)-7-(2-methylpyridin-4-yl)-3,4-dihydro-1,4-methanopyrido[2,3-b][1,4]diazepine-5(2H)-carboxamide]"
B (EC1.5 1-25 μM),A (Fold activation ≧150%),,,"Cc1cc(-c2nc3c(cc2Cl)N2CC[C@@H](C2)N3C(=O)Nc2cnc(OC[C@H](O)CO)cn2)ccn1 [Example 29, (4S)-8-chloro-N-(5-((R)-2,3-dihydroxypropoxy)pyrazin-2-yl)-7-(2-methylpyridin-4-yl)-3,4-dihydro-1,4-methanopyrido[2,3-b][1,4]diazepine-5(2H)-carboxamide]"
A (EC1.5<1 μM),A (Fold activation ≧150%),,,"Cl.O=C(Nc1ccnc(OC[C@H](O)CO)c1)N1c2nc(-c3cccc(C(F)(F)F)c3)c(Cl)cc2N2CC[C@H]1C2 [Example 60, (4S)-8-chloro-N-(2-((R)-2,3-dihydroxypropoxy)pyridin-4-yl)-7-(3-(trifluoromethyl)phenyl)-3,4-dihydro-1,4-methanopyrido[2,3-b][1,4]diazepine-5(2H)-carboxamide, Hydrochloride]"
B (EC1.5 1-25 μM),A (Fold activation ≧150%),,,"O=C(Nc1cc(OC[C@H](O)CO)ncn1)N1c2nc(-c3cccc(C(F)(F)F)c3)c(Cl)cc2N2CC[C@H]1C2 [Example 24, (4S)-8-chloro-N-(6-((R)-2,3-dihydroxypropoxy)pyrimidin-4-yl)-7-(3-(trifluoromethyl)phenyl)-3,4-dihydro-1,4-methanopyrido[2,3-b][1,4]diazepine-5(2H)-carboxamide]"
B (EC1.5 1-25 μM),A (Fold activation ≧150%),,,"Cc1cc(-c2nc3c(cc2Cl)N2CC[C@@H](C2)N3C(=O)Nc2cncc(OC[C@@H](O)CO)c2)ccn1 [Example 110, (4S)-8-chloro-N-(5-((S)-2,3-dihydroxypropoxy)pyridin-3-yl)-7-(2-methylpyridin-4-yl)-3,4-dihydro-1,4-methanopyrido[2,3-b][1,4]diazepine-5(2H)-carboxamide]"

# Further lines, the molecule ahead of its results:
Structure (SMILES),TRP Activity (EC1.5),TRP MAX RESP (percent maximum fold activation) [1],"TRP Activity (EC1.5, concentration of test compound that results in 150% activation of SIRT1) [2]",TRP MAX RESP (percent maximum fold activation) [2]
"Cc1cc(-c2ccc3c(n2)N(C(=O)Nc2ncn(C)n2)[C@H]2CCN3C2)ccn1 [Example 143, (4S)-N-(1-methyl-1H-1,2,4-triazol-3-yl)-7-(2-methylpyridin-4-yl)-3,4-dihydro-1,4-methanopyrido[2,3-b][1,4]diazepine-5(2H)-carboxamide]",B (EC1.5 1-25 μM),A (Fold activation ≧150%),,
"Cc1cc(-c2nc3c(cc2F)N2CC[C@@H](C2)N3C(=O)Nc2cccnc2)ccn1 [Example 14, (4S)-8-fluoro-7-(2-methylpyridin-4-yl)-N-(pyridin-3-yl)-3,4-dihydro-1,4-methanopyrido[2,3-b][1,4]diazepine-5(2H)-carboxamide]",B (EC1.5 1-25 μM),A (Fold activation ≧150%),,
"Cc1ccc(-c2ccc3c(n2)N(C(=O)Nc2cnccn2)[C@H]2CCN3C2)c(C)n1 [Example 200, (4S)-7-(2,6-dimethylpyridin-3-yl)-N-(pyrazin-2-yl)-3,4-dihydro-1,4-methanopyrido[2,3-b][1,4]diazepine-5(2H)-carboxamide]",B (EC1.5 1-25 μM),A (Fold activation ≧150%),,
"O=C(NC1CC1)N1c2nc(-c3cccc(C(F)(F)F)c3)c(Cl)cc2N2CC[C@H]1C2 [Example 52, (4S)-8-chloro-N-cyclopropyl-7-(3-(trifluoromethyl)phenyl)-3,4-dihydro-1,4-methanopyrido[2,3-b][1,4]diazepine-5(2H)-carboxamide]",A (EC1.5<1 μM),A (Fold activation ≧150%),,
"O=C(Nc1cnccn1)N1c2nc(-c3ccnc(C(F)F)c3)ccc2N2CC[C@H]1C2 [Example 216, (4S)-7-(2-(difluoromethyl)pyridin-4-yl)-N-(pyrazin-2-yl)-3,4-dihydro-1,4-methanopyrido[2,3-b][1,4]diazepine-5(2H)-carboxamide]",,,A (EC1.5<1 μM),A (Fold activation ≧150%)
Cc1cc(-c2ccc3c(n2)N(C(=O)Nc2nccc(-c4cnco4)n2)[C@H]2CCN3C2)ccn1 [Example 355],,,,A (Fold activation ≧150%)
Cn1ccc(-c2ccc3c(n2)N(C(=O)Nc2cnccn2)[C@H]2CCN3C2)cc1=O [Example 264],,,,A (Fold activation ≧150%)
"Cc1cc(-c2ccc3c(n2)N(C(=O)Nc2c[nH]nn2)[C@H]2CCN3C2)ccn1 [Example 167, (4S)-7-(2-methylpyridin-4-yl)-N-(1H-1,2,3-triazol-4-yl)-3,4-dihydro-1,4-methanopyrido[2,3-b][1,4]diazepine-5(2H)-carboxamide]",B (EC1.5 1-25 μM),A (Fold activation ≧150%),,
"C[C@@H]1CN(c2ccc3c(n2)N(C(=O)Nc2cnccn2)[C@H]2CCN3C2)CCO1 [Example 124, (4S)-7-((R)-2-methylmorpholino)-N-(pyrazin-2-yl)-3,4-dihydro-1,4-methanopyrido[2,3-b][1,4]diazepine-5(2H)-carboxamide]",,A (Fold activation ≧150%),,
"Cc1cc(-c2ccc3c(n2)N(C(=O)NCc2ccccn2)[C@H]2CCN3C2)ccn1 [Example 186, (4S)-7-(2-methylpyridin-4-yl)-N-(pyridin-2-ylmethyl)-3,4-dihydro-1,4-methanopyrido[2,3-b][1,4]diazepine-5(2H)-carboxamide]",C (EC1.5>25 μM),B (Fold Activation <150%),,
